Columns and labels:
[1] = test system: C57Bl/6J mice; assay: Body composition (EchoMRI); assay type: in vivo, mouse
Method: (§1) Animals. Animal experiments were approved by the Animal Care and Use Committee of the University of Virginia (Charlottesville, Va., United States of America). C57Bl/6J mice were obtained from Jackson Laboratories (Bar Harbor, Me., United States of America). Mice were group housed in standard cages with up to five mice per cage with a 12 hour dark/light cycle. All mice were weighed once per week. Weekly food consumption was measured, with the amount consumed per cage averaged amongst the mice in the cage. Body composition was determined by use of an ECHOMRI™-100H Body Composition Analyzer (EchoMRI LLC, Houston, Tex., United States of America).
(§2) Diets. Diets were obtained from Research Diets (New Brunswick, N.J., United States of America). The low fat chow was D12450Ji (10 kcal % fat) and the high fat chow was D12492 (60 kcal % fat). These two chows were reformulated by replacing a portion of dietary fat with an ethyl ester of nervonic acid from Nu-Chek Prep (Elysian, Minn., United States of America) to produce isocaloric diets with nervonic acid at 6 g per kg of diet (0.6%). For the three most prevalent fatty acids in these diets: C16 comprised 14.4%, 11.7%, 18.5%, and 18.1%; C18:1 comprised 27.4%, 22.8%, 32%, and 31.4%; and C18:2 comprised 39.6%, 36.2%, 26.9%, and 26.5% of the fatty acid composition of the Cnt, Cnt+NA, HFD, and HFD+NA diets, respectively. Mice were started on diets at ˜8 weeks of age and given ad libitum access.

[2] = test system: C57Bl/6J mice; assay: Plasma C24:1-ceramides after 72 hours on the diets; assay type: in vivo, mouse; settings: control and HFDs; 72 hours on diets
Description: as §2
Sphingolipid and acylcarnitine measurements by liquid chromatography-mass spectrometry. Sphingolipids were analyzed as described previously (Wijesinghe et al., 2010) for FIG. 1B or with modifications described herein. Liver samples from rats fed a low or high fat diet were obtained from Scot Kimball's laboratory at the Pennsylvania State University (Hershey, Pa.). Mouse liver samples were analyzed with modifications as described previously (Pearson et al., 2020). […]

[3] = test system: C57Bl/6J mice; assay: Observation of overt toxicities in animals fed a NA-enriched diet; assay type: in vivo, mouse
[4] = test system: C57Bl/6J mice; assay: Glucose Tolerance Test (GTT); assay type: in vivo, mouse; settings: HFD+NA versus HFD, 10 weeks on diets
Method: Insulin Tolerance Test (ITT) and Glucose Tolerance Test (GTT) and analysis of blood glucose and plasma insulin. ITT and GTT were performed as described in Lansey et al., 2012. Briefly, for ITT, random-fed mice were given an intraperitoneal injection (IP) of insulin (0.75 U/kg in 0.9% NaCl). Blood glucose levels were determined by a glucometer (Contour Next EZ Blood Glucose Monitoring System, Bayer, Leverkusen, Germany) at the indicated time points after injection. For GTT, mice were fasted for 16 hours prior to testing. D-Glucose, prepared the day before, was administered via an IP injection (1 g/kg), and blood glucose levels were determined by a glucometer at the indicated time points after injection. Plasma insulin levels were determined using a STELLUX® brand Chemi Rodent Insulin ELISA kit (Cat. No. 80-INSMR-CHO1; APLCO, Salem, N.H., United States of America) or an Ultrasensitive Rat/Mouse Insulin ELISA kit, Low Range Assay (Cat. No. 90060; Crystal Chem, Downers Grove, Ill., United States of America). The luminescence assay was conducted using a VICTOR2 Plate Reader (Perkin Elmer, Waltham, Mass., United States of America).

[5] = test system: C57Bl/6J mice; assay: Body weight over 12 weeks on the diets; assay type: in vivo, mouse
Method: as §1, §2

[6] = test system: C57Bl/6J mice; assay: Average food consumption over 12 weeks; assay type: in vivo, mouse
Method: as §1

[7] = test system: C57Bl/6J mice; assay: Fecal caloric content by bomb calorimetry; assay type: in vivo, mouse
Method: For determination of energy expenditure, respiratory exchange ratios, and activity, mice were placed in an Oxymax metabolic chamber systems (Comprehensive Laboratory Animal Monitoring System, CLAMS, from Columbus Instruments (Columbus, Ohio, United States of America). Oxygen consumption (V02) and carbon dioxide production (VCO2) were determined for each mouse every 18 minutes over 72 hours with ambulatory activity assessed every minute over this same time period. Only the last two complete light and dark cycles (spanning 48 hours) were used for data analysis. Feces was collected from these studies and shipped to the Mouse Metabolic Phenotyping Core at the University of Texas Southwestern for bomb calorimetry analysis using a Parr 6200 Isoperibol Calorimeter (Parr Instrument Company, Moline, Ill., United States of America).

[8] = test system: HEK293 cells; assay: CerS2 siRNA knockdown in HEK293 cells with nervonic acid treatment, C24:1 ceramide; assay type: cell-based; settings: 1 μM NA for 24 hours
Method: Cell culture. HEK293 cells were grown in DMEM containing 10% FBS. Cells were transfected with Silencer Select siRNA to CerS2 (s26789) or Silencer Select negative control No. 1 using LIPOFECTAMINE® 3000 brand transfection reagent following the manufacturer's protocol. All culture reagents were obtained from Thermo Fisher Scientific (Waltham, Mass., United States of America). 48 hours post-transfection, cells were treated with vehicle or 1 μM nervonic acid for 24 hours.
Sphingolipid and acylcarnitine measurements by liquid chromatography-mass spectrometry. Sphingolipids were analyzed as described previously (Wijesinghe et al., 2010) for FIG. 1B or with modifications described herein. Liver samples from rats fed a low or high fat diet were obtained from Scot Kimball's laboratory at the Pennsylvania State University (Hershey, Pa.). Mouse liver samples were analyzed with modifications as described previously (Pearson et al., 2020). For FIGS. 1A and 5D, liver homogenates were subjected to lipid extraction and subjected to liquid chromatography-electrospray ionization mass spectrometry was performed on an I-class Acquity with a 2.1 mm×10 cm C18 CSH […] particle size column coupled to an in-line TQ-S mass spectrometer from Waters Corporation (Milford, Mass., United States of America).

Question: Which results are given for (Z)-tetracos-15-enoic acid [NA]?
Answer: average body fat content ([1]; HFD+NA fed animals at the time of sacrifice (HFD: 16.44 g/mouse)): 9.48 g/mouse; fat mass ([1]; HFD+NA versus HFD): reduction in fat mass; lean mass ([1]; HFD+NA versus HFD): slightly, but significantly, reduced; lean mass ([1]; HFD+NA versus control or control+NA groups): not significantly different; water mass ([1]; all experimental groups): similar; lean mass ([1]; control+NA versus control): not significantly different; plasma C24:1-ceramides [2]: significant increases; overt toxicities (ruffled fur, anorexia, cachexia, skin tenting, skin ulcerations, diarrhea, death) [3]: No overt toxicities; glucose tolerance (glucose load, area under the curve) [4]: significantly improved glucose tolerance; glucose tolerance (glucose load, area under the curve) ([4]; listed as nervonic acid): reduction in the glucose load; body weight gain ([5]; HFD+NA versus HFD, 12 weeks): significantly less body weight gain; body weights ([5]; HFD+NA versus control diet, 12 weeks): not significantly different; body weight gains over time ([5]; NA-enriched control diet versus control diet): significantly less body weight gains over time; average food consumption ([6]; HFD+NA versus HFD, 12 weeks): similar; food consumption ([6]; control+NA versus control): not significantly different; fecal caloric content ([7]; HFD+NA versus HFD): No differences; fecal caloric content ([7]; control+NA versus control): No differences; C24:1 ceramide after CerS2 knockdown [8]: only partially restored

Source: patent publication US20220347144A1, “COMPOSITIONS AND METHODS FOR PREVENTING AND/OR REDUCING WEIGHT GAIN AND ASSOCIATED CONDITIONS” (University of Virginia Patent Foundation, priority 2019, published 2022)
